Assay results from ChEMBL document CHEMBL1154175, “A dynamic target-based pharmacophoric model mapping the CD4 binding site on HIV-1 gp120 to identify new inhibitors of gp120-CD4 protein-protein interactions” (Bioorg Med Chem Lett, 2009).
Activity calls are given as the source filed them. The rule behind the calls is not given here.

Assays:
[1] = test system: Human immunodeficiency virus 1; assay: Antiviral activity against HIV1 NL4-3 infected in human MT4 cells assessed as capsid p24antigen production at 100 times EC50 treated before infection by ELISA; type: functional, organism-based
[2] = test system: Human immunodeficiency virus 1; assay: Antiviral activity against HIV1 NL4-3 infected in human MT4 cells assessed as capsid p24antigen production at 100 times EC50 treated after infection by ELISA; type: functional, organism-based
[3] = test system: Human immunodeficiency virus 1; assay: Antiviral activity against HIV1 NL4-3 with gp120 mutation […] infected in human MT4 cells assessed as inhibition of virus-induced cytopathic effect after 5 days by MTT assay; type: functional, organism-based; details: Human immunodeficiency virus 1, NL4-3, MT4, 120 h
[4] = test system: Human immunodeficiency virus 1; assay: Antiviral activity against HIV1 NL4-3 infected in human MT4 cells assessed as inhibition of virus-induced cytopathic effect after 5 days by MTT assay; type: functional, organism-based; details: Human immunodeficiency virus 1, NL4-3, MT4, 120 h
[5] = Cytotoxicity against human MT4 cells after 5 days by MTT assay; type: cell-based

| SMILES | Activity [1] | Activity [2] | EC50 [3] | EC50 [4] | CC50 at 120 h [5] |
| --- | --- | --- | --- | --- | --- |
| CCOC(=O)/C(=C\c1ccc(-c2cccc([N+](=O)[O-])c2)o1)C(=O)c1ccccc1 | Active | inactive | > 64 µM | 9 µM | > 64 µM |
| CCOC(=O)[C@H](Cc1ccc(/N=C/c2cc(Br)ccc2O)cc1)N1C(=O)c2ccccc2C1=O |  |  | > 48 µM | 22 µM | > 48 µM |
| COc1ccc(/C=N/c2nc3ccccc3n2Cc2ccc(Cl)cc2)cc1OC |  |  |  | > 62 µM | > 62 µM |
| C=CCn1c(SCc2ccc(C(=O)NCCO)cc2)nc2ccccc2c1=O |  |  |  | > 63 µM | > 63 µM |
| C[C@@H]1CN(C(=O)c2ccccc2)CCN1C(=O)C(=O)c1cc2ccccc2[nH]1 |  |  | > 2.66 µM | 0.024 µM | > 2.66 µM |
| COc1nc(N/N=C/c2ccc(-c3ccc(Cl)c([N+](=O)[O-])c3)o2)nc(N2CCOCC2)n1 |  |  |  | > 54 µM | > 54 µM |
